In patent US5723484A, “Benzopyran compounds as 5-HT2C receptor antagonists” (Adir et Compagnie, priority 1994, dated 1998):
pKi: −log10 of the molar value. Where a name gives a salt, the structure may show the parent alone.

What was measured:
5-HT2C receptors [1] = biological target: T1, 5-HT2C receptors (Sus scrofa, UniProt K7GSR7); experiment: biochemical; assay type: binding, pig; settings: for Ki: 5-HT2C Ki (nM), pig cerebral plexus, [3H]-mesulergine 1.0 nM, average of two to four determinations
T1 construct: pig cerebral plexus; from tissue; host or cells: pig cerebral plexus (own knowledge: choroid plexus)
T1 sequence (K7GSR7 1-457): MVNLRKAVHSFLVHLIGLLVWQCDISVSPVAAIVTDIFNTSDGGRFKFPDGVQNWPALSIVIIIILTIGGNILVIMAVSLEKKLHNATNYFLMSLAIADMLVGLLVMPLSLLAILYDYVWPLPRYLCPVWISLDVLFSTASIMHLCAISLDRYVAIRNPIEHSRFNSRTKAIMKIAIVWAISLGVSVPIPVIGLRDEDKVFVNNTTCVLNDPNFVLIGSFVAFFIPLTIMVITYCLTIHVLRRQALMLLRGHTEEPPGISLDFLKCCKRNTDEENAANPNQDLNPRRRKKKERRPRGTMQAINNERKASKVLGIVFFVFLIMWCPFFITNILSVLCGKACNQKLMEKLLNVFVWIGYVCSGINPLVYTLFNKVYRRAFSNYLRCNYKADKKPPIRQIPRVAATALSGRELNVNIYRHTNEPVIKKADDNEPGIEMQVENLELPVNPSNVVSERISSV
Method: (§1) Measurement of the in vitro affinity for the 5-HT2C and 5-HT2A receptors
(§2) The procedures described for the studies of the binding to the 5-HT2A and 5-HT2C receptors are exactly those described by H. Canton et al. (Eur. J. Pharmacol., 191, 93, 1990) and M. J. Millan et al. (J. Pharmacol. Exp. Ther., 262, 451-463, 1992). For 5-HT2A : rat frontal cortex/[^3 H]-ketanserin (1.0 nM). For 5-HT2C : pig […] plexus/[^3 H]-mesulergine (1.0 nM). The 50% inhibitory doses (ID50) are determined by regression analysis and the pKi values are calculated as follows: [formula] [L]=concentration of the Kd-Kd=dissociation constant Results

5-HT2C receptors [2] = experiment: biochemical; assay type: binding, pig; settings: 5-HT2A Ki (rat frontal cortex) over 5-HT2C Ki (pig cerebral plexus)
Method: as §1, §2

5-HT2A receptors [3] = biological target: T2, 5-HT2A receptors (Rattus norvegicus, UniProt P14842); experiment: In vitro affinity for the 5-HT2A receptors, rat frontal cortex/[3H]-ketanserin (1.0 nM); assay type: binding; settings: for pKi: rat frontal cortex, [3H]-ketanserin 1.0 nM, average of two to four determinations
T2 construct: rat frontal cortex; from tissue; host or cells: rat frontal cortex
Method: as §1, §2

5-HT2A receptors [4] = settings: literature; cited from earlier work
5-HT2C receptors [5] = settings: literature; cited from earlier work
patients = settings: clinical results in patients, literature; cited from earlier work

T2 sequence (P14842 whole entry): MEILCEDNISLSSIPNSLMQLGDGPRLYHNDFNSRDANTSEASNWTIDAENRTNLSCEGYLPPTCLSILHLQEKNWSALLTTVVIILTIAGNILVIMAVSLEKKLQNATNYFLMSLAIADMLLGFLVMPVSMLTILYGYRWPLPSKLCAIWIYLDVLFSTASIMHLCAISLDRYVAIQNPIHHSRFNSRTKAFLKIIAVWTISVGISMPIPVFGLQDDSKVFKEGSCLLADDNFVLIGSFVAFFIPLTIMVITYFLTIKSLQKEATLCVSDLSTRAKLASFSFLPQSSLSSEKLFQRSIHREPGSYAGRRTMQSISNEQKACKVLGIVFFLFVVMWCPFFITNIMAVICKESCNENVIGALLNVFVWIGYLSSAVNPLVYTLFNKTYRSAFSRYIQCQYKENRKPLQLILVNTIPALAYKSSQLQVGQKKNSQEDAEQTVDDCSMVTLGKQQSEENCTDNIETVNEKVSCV

Cl.c1ccc2c3c(ccc2c1)[C@@H]1CNC[C@@H]1CO3 (relative stereo) [Example 36, cis-12,13,14,15,16,17-Hexahydro-11-oxa-16-aza-cyclopenta[a]phenanthrene hydrochloride]
Ki (5-HT2C receptors [1]): 25.7 nM
5-HT2A /5-HT2C affinity ratio (5-HT2C receptors [2]): 10
pKi (5-HT2A receptors [3]): 6.59

c1ccc(CN2C[C@H]3COc4ccc5ccccc5c4[C@H]3C2)cc1 (relative stereo) [Example 37, cis-2-Benzyl-1,2,3,3a,4,11c-hexahydro-5-oxa-2-aza-cyclopenta[c]phenanthrenehydrochloride]
Ki (5-HT2C receptors [1]): 155 nM
5-HT2A /5-HT2C affinity ratio (5-HT2C receptors [2]): 8.7
pKi (5-HT2A receptors [3]): 5.87

Cl.c1ccc2c3c(ccc2c1)OC[C@@H]1CNC[C@H]31 (relative stereo) [Example 38, cis-1,2,3,3a,4,11c-Hexahydro-5-oxa-2-aza-cyclopenta[c]phenanthrene hydrochloride]
Ki (5-HT2C receptors [1]): 22.9 nM
5-HT2A /5-HT2C affinity ratio (5-HT2C receptors [2]): 4.3
pKi (5-HT2A receptors [3]): 7.01

COc1cccc([C@H](O)C2CCN(CCc3ccc(F)cc3)CC2)c1OC [MDL 100,907, reference compound]
affinity for the 5-HT2A sites/receptors (5-HT2A receptors [3]): very strong affinity
action at 5-HT2A receptors (5-HT2A receptors [4]): selective 5-HT2A antagonist

Cn1ccc2cc(NC(=O)Nc3cccnc3)ccc21 [SB 200,646, reference compound]
affinity for the 5-HT2C receptors (5-HT2C receptors [1]): modest affinity
Ki (5-HT2C receptors [1]): 204 nM
pKi (5-HT2C receptors [1]; affinity for the 5-HT2C receptors, of the order of): ~6.70
affinity for the 5-HT2A sites/receptors (5-HT2A receptors [3]): weak affinity
pKi (5-HT2A receptors [3]): 5.88
action at 5-HT2C receptors (5-HT2C receptors [5]): selective 5-HT2C antagonist

Clc1cccc(N2CCNCC2)c1 [mCPP]
action at 5-HT2C receptors (5-HT2C receptors [5]): 5-HT2C agonist
action at 5-HT2A receptors (5-HT2A receptors [4]): 5-HT2A antagonist
anxiogenic properties and exacerbation of psychiatric states (patients): pronounced anxiogenic properties and which exacerbates depressive, aggressive and psychotic states in patients
